Assay results: patent US9408852B2, “Method of lowering serum uric acid levels with (S)-tofisopam” (PHARMOS CORPORATION, priority 2011, dated 2016)
Values joined by “and” are separate entries in the source; they are usually repeats but may differ in a detail not shown here. Identical values can stand only once.

Test system: fractional excretion of urate
Test: Fractional excretion of urate in patients with hyperuricemia and gout (Example 9)
Assay type: in vivo, human
Conditions: 50 mg qd Day 1 and 7, tid Days 2 to 6
Procedure: The study lasted 7 days, and patients were treated with placebo or 50 mg of enantiomerically-pure (S)-tofisopam once a day (qd) on Day 1 and Day 7 of the study, and with placebo or 50 mg of enantiomerically-pure (S)-tofisopam three times a day (tid) for Days 2 to 6 of the study. […] In Table 8, days indicated with a minus sign (e.g. D-1) indicate the time point corresponding to that number of days before treatment was initiated. For example, D-14 is the time point fourteen days before treatment was initiated.

Structure (SMILES): CC[C@@H]1C(C)=NN=C(c2ccc(OC)c(OC)c2)c2cc(OC)c(OC)cc21 [(S)-tofisopam]
- Percent change in FEu (fractional excretion uric acid) (individual patient (P#), [D 1 to D 2] from [D −2 to D −1]): −14.9% and 11.7% and −0.2% and 41.9% and −54.2% and 137.8% and 62.9% and 162.7% and 51.0% and −29.6% and 19.5% and 40.4%
- Percent change in FEu (fractional excretion uric acid) (individual patient (P#), [D 6 to D 7] from [D 1 to D 2]): 139.3% and 78.5% and 160.4% and 60.9% and 100.7% and 62.6% and 17.3% and 33.2% and 61.6% and 57.5% and 125.9%
- Percent change in FEu (fractional excretion uric acid) (mean (M) of patients, [D 1 to D 2] from [D −2 to D −1]): 35.8%
- Percent change in FEu (fractional excretion uric acid) (mean (M) of patients, [D 6 to D 7] from [D 1 to D 2]): 81.6%
